Laboratory results as given in PubChem BioAssay (NCI).
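The compound was tested at five concentrations on cells cultured in 96-well plates, with a 48-hour exposure period. The concentration for 50% growth inhibition is given as GI50. TGI is the concentration that stops growth completely.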

Tests used:
Experiment in all cases: DTP human tumour cell line panel, 48 h
SNB-19 CNS = test system: SNB-19 CNS
MALME-3M melanoma = test system: MALME-3M melanoma
ACHN renal = test system: ACHN renal
OVCAR-3 ovarian = test system: OVCAR-3 ovarian
MOLT-4 leukemia = test system: MOLT-4 leukemia
SK-MEL-2 melanoma = test system: SK-MEL-2 melanoma
UO-31 renal = test system: UO-31 renal
SN12C renal = test system: SN12C renal
HCC-2998 colon = test system: HCC-2998 colon
CCRF-CEM leukemia = test system: CCRF-CEM leukemia
RPMI-8226 leukemia = test system: RPMI-8226 leukemia
RXF 393 renal = test system: RXF 393 renal
HCT-15 colon = test system: HCT-15 colon
SF-268 CNS = test system: SF-268 CNS
UACC-62 melanoma = test system: UACC-62 melanoma
OVCAR-5 ovarian = test system: OVCAR-5 ovarian
NCI-H522 lung = test system: NCI-H522 lung
NCI/ADR-RES ovarian = test system: NCI/ADR-RES ovarian
OVCAR-4 ovarian = test system: OVCAR-4 ovarian
OVCAR-8 ovarian = test system: OVCAR-8 ovarian
MDA-MB-435 = test system: MDA-MB-435
SF-295 CNS = test system: SF-295 CNS
K-562 leukemia = test system: K-562 leukemia
NCI-H23 lung = test system: NCI-H23 lung
MDA-MB-231 breast = test system: MDA-MB-231 breast
SW-620 colon = test system: SW-620 colon
EKVX NSCLC = test system: EKVX NSCLC
IGROV1 ovarian = test system: IGROV1 ovarian
KM12 colon = test system: KM12 colon
NCI-H226 lung = test system: NCI-H226 lung
PC-3 prostate = test system: PC-3 prostate
COLO 205 colon = test system: COLO 205 colon
T-47D breast = test system: T-47D breast
LOX IMVI melanoma = test system: LOX IMVI melanoma
HOP-62 NSCLC = test system: HOP-62 NSCLC
SK-MEL-28 melanoma = test system: SK-MEL-28 melanoma
SF-539 CNS = test system: SF-539 CNS
NCI-H460 lung = test system: NCI-H460 lung
HCT-116 colon = test system: HCT-116 colon
HS 578T breast = test system: HS 578T breast
U251 CNS = test system: U251 CNS
SNB-75 CNS = test system: SNB-75 CNS
HOP-92 NSCLC = test system: HOP-92 NSCLC
MCF7 breast = test system: MCF7 breast
HT29 colon = test system: HT29 colon
SK-OV-3 ovarian = test system: SK-OV-3 ovarian
UACC-257 melanoma = test system: UACC-257 melanoma
SK-MEL-5 melanoma = test system: SK-MEL-5 melanoma
DU-145 prostate = test system: DU-145 prostate
HL-60(TB) leukemia = test system: HL-60(TB) leukemia
A549 NSCLC = test system: A549 NSCLC
CAKI-1 renal = test system: CAKI-1 renal
A498 renal = test system: A498 renal
SR leukemia = test system: SR leukemia
786-0 renal = test system: 786-0 renal
TK-10 renal = test system: TK-10 renal
M14 melanoma = test system: M14 melanoma
BT-549 breast = test system: BT-549 breast
MDA-N = test system: MDA-N

## COc1ccc(-c2oc3ncnc(N)c3c2-c2ccc(NC(=O)Nc3cc(C(F)(F)F)ccc3F)cc2)cc1
SNB-19 CNS
  GI50: 1.61 µM
  TGI: 12.2 µM
MALME-3M melanoma
  GI50: 1.81 µM
  TGI: 6.22 µM
ACHN renal
  GI50: 0.95 µM
  TGI: 7.89 µM
OVCAR-3 ovarian
  GI50: 1.3 µM
  TGI: 4.32 µM
MOLT-4 leukemia
  GI50: 1.64 µM
  TGI: 8.98 µM
SK-MEL-2 melanoma
  GI50: 1.01 µM
  TGI: 3.5 µM
UO-31 renal
  GI50: 0.706 µM
  TGI: 5.01 µM
SN12C renal
  GI50: 0.828 µM
  TGI: 3.75 µM
HCC-2998 colon
  GI50: 2.08 µM
  TGI: 5.81 µM
CCRF-CEM leukemia
  GI50: 0.934 µM
  TGI: 11.8 µM
RPMI-8226 leukemia
  GI50: 2.26 µM
  TGI: 10.1 µM
RXF 393 renal
  GI50: 0.473 µM
  TGI: 1.15 µM
HCT-15 colon
  GI50: 1.04 µM
  TGI: 6.65 µM
SF-268 CNS
  GI50: 1.03 µM
  TGI: 3.76 µM
UACC-62 melanoma
  GI50: 0.956 µM
  TGI: 4.23 µM
OVCAR-5 ovarian
  GI50: 3.15 µM
  TGI: 8.82 µM
NCI-H522 lung
  GI50: 1.23 µM
  TGI: 4.28 µM
NCI/ADR-RES ovarian
  GI50: 1.17 µM
  TGI: 6.24 µM
OVCAR-4 ovarian
  GI50: 1.05 µM
  TGI: 8.45 µM
OVCAR-8 ovarian
  GI50: 0.79 µM
  TGI: 3.73 µM
MDA-MB-435
  GI50: 0.871 µM
  TGI: 3.95 µM
SF-295 CNS
  GI50: 1.88 µM
  TGI: 7.47 µM
K-562 leukemia
  GI50: 1.19 µM
  TGI: 16.6 µM
NCI-H23 lung
  GI50: 0.823 µM
  TGI: 3.26 µM
MDA-MB-231 breast
  GI50: 1.1 µM
  TGI: 6.17 µM
SW-620 colon
  GI50: 0.952 µM
  TGI: 3.58 µM
EKVX NSCLC
  GI50: 1.59 µM
  TGI: 9.74 µM
IGROV1 ovarian
  GI50: 0.995 µM
  TGI: 5.82 µM
KM12 colon
  GI50: 0.00588 µM
  TGI: 1.51 µM
NCI-H226 lung
  GI50: 0.601 µM
  TGI: 8.36 µM
PC-3 prostate
  GI50: 1.94 µM
  TGI: 11.4 µM
COLO 205 colon
  GI50: 0.558 µM
  TGI: 1.45 µM
T-47D breast
  GI50: 1.94 µM
  TGI: 10.1 µM
LOX IMVI melanoma
  GI50: 0.658 µM
  TGI: 3.21 µM
HOP-62 NSCLC
  GI50: 0.953 µM
  TGI: 3.38 µM
SK-MEL-28 melanoma
  GI50: 1.94 µM
  TGI: 5.26 µM
SF-539 CNS
  GI50: 1.55 µM
  TGI: 5.41 µM
NCI-H460 lung
  GI50: 0.85 µM
  TGI: 2.97 µM
HCT-116 colon
  GI50: 0.883 µM
  TGI: 2.84 µM
HS 578T breast
  GI50: 0.833 µM
  TGI: 4.67 µM
U251 CNS
  GI50: 0.997 µM
  TGI: 3.83 µM
SNB-75 CNS
  GI50: 1.51 µM
  TGI: 4.35 µM
HOP-92 NSCLC
  GI50: 0.808 µM
  TGI: 5.4 µM
MCF7 breast
  GI50: 0.675 µM
  TGI: 3.21 µM
HT29 colon
  GI50: 0.844 µM
  TGI: 3.12 µM
SK-OV-3 ovarian
  GI50: 0.894 µM
  TGI: 5.09 µM
UACC-257 melanoma
  GI50: 2.46 µM
  TGI: 6.69 µM
SK-MEL-5 melanoma
  GI50: 1.52 µM
  TGI: 4.41 µM
DU-145 prostate
  GI50: 1.14 µM
  TGI: 4.16 µM
HL-60(TB) leukemia
  GI50: 2.58 µM
  TGI: 9.31 µM
A549 NSCLC
  GI50: 0.762 µM
  TGI: 3.43 µM
CAKI-1 renal
  GI50: 0.838 µM
  TGI: 6.69 µM
A498 renal
  GI50: 0.329 µM
  TGI: 2.55 µM
SR leukemia
  GI50: 0.833 µM
  TGI: 8.61 µM
786-0 renal
  GI50: 1.45 µM
  TGI: 5.49 µM
TK-10 renal
  GI50: 0.67 µM
  TGI: 3.37 µM
M14 melanoma
  GI50: 0.806 µM
  TGI: 3.23 µM
BT-549 breast
  GI50: 1.82 µM
  TGI: 5.08 µM

## CCc1cc2c(cc1C(=O)CCC(=O)O)CC1(C2)Cc2cc(CC)c(C(=O)CCC(=O)O)cc2C1
SNB-19 CNS
  TGI: > 100 µM
MALME-3M melanoma
  TGI: > 100 µM
ACHN renal
  TGI: > 100 µM
OVCAR-3 ovarian
  TGI: > 100 µM
MOLT-4 leukemia
  TGI: > 100 µM
SK-MEL-2 melanoma
  TGI: > 100 µM
UO-31 renal
  TGI: > 100 µM
SN12C renal
  TGI: > 100 µM
HCC-2998 colon
  TGI: > 100 µM
CCRF-CEM leukemia
  TGI: > 100 µM
RPMI-8226 leukemia
  TGI: > 100 µM
RXF 393 renal
  TGI: > 100 µM
HCT-15 colon
  TGI: > 100 µM
SF-268 CNS
  TGI: > 100 µM
OVCAR-5 ovarian
  TGI: > 100 µM
NCI-H522 lung
  TGI: > 100 µM
NCI/ADR-RES ovarian
  TGI: > 100 µM
OVCAR-4 ovarian
  TGI: > 100 µM
OVCAR-8 ovarian
  TGI: > 100 µM
MDA-MB-435
  TGI: > 100 µM
SF-295 CNS
  TGI: > 100 µM
K-562 leukemia
  TGI: > 100 µM
NCI-H23 lung
  TGI: > 100 µM
MDA-MB-231 breast
  TGI: > 100 µM
SW-620 colon
  TGI: > 100 µM
EKVX NSCLC
  TGI: > 100 µM
IGROV1 ovarian
  TGI: > 100 µM
KM12 colon
  TGI: > 100 µM
NCI-H226 lung
  TGI: > 100 µM
PC-3 prostate
  TGI: > 100 µM
COLO 205 colon
  TGI: > 100 µM
T-47D breast
  TGI: > 100 µM
LOX IMVI melanoma
  TGI: > 100 µM
HOP-62 NSCLC
  TGI: > 100 µM
SK-MEL-28 melanoma
  TGI: > 100 µM
SF-539 CNS
  TGI: > 100 µM
NCI-H460 lung
  TGI: > 100 µM
MDA-N
  TGI: > 100 µM
HCT-116 colon
  TGI: > 100 µM
HS 578T breast
  TGI: > 100 µM
U251 CNS
  TGI: > 100 µM
SNB-75 CNS
  TGI: > 100 µM
HOP-92 NSCLC
  TGI: > 100 µM
MCF7 breast
  TGI: > 100 µM
HT29 colon
  TGI: > 100 µM
SK-OV-3 ovarian
  TGI: > 100 µM
UACC-257 melanoma
  TGI: > 100 µM
SK-MEL-5 melanoma
  TGI: > 100 µM
DU-145 prostate
  TGI: > 100 µM
HL-60(TB) leukemia
  TGI: > 100 µM
A549 NSCLC
  TGI: > 100 µM
CAKI-1 renal
  TGI: > 100 µM
A498 renal
  TGI: > 100 µM
786-0 renal
  TGI: > 100 µM
TK-10 renal
  TGI: > 100 µM
M14 melanoma
  TGI: > 100 µM

## CCOC(=O)c1ccc(NCc2ccc3nc(OC)c(OC)nc3c2)cc1
SNB-19 CNS
  TGI: > 100 µM
MALME-3M melanoma
  TGI: > 100 µM
ACHN renal
  TGI: > 100 µM
OVCAR-3 ovarian
  TGI: > 100 µM
MOLT-4 leukemia
  TGI: > 100 µM
SK-MEL-2 melanoma
  TGI: > 100 µM
UO-31 renal
  TGI: > 100 µM
SN12C renal
  TGI: > 100 µM
HCC-2998 colon
  TGI: > 100 µM
CCRF-CEM leukemia
  TGI: > 100 µM
HCT-15 colon
  TGI: > 100 µM
SF-268 CNS
  TGI: > 100 µM
UACC-62 melanoma
  TGI: > 100 µM
OVCAR-5 ovarian
  TGI: > 100 µM
NCI-H522 lung
  TGI: > 100 µM
NCI/ADR-RES ovarian
  TGI: > 100 µM
OVCAR-4 ovarian
  TGI: > 100 µM
OVCAR-8 ovarian
  TGI: > 100 µM
MDA-MB-435
  TGI: > 100 µM
SF-295 CNS
  TGI: > 100 µM
K-562 leukemia
  TGI: > 100 µM
NCI-H23 lung
  TGI: > 100 µM
MDA-MB-231 breast
  TGI: > 100 µM
SW-620 colon
  TGI: > 100 µM
EKVX NSCLC
  TGI: > 100 µM
IGROV1 ovarian
  TGI: > 100 µM
KM12 colon
  TGI: > 100 µM
NCI-H226 lung
  TGI: > 100 µM
PC-3 prostate
  TGI: > 100 µM
COLO 205 colon
  TGI: > 100 µM
T-47D breast
  TGI: > 100 µM
LOX IMVI melanoma
  TGI: > 100 µM
HOP-62 NSCLC
  TGI: > 100 µM
SK-MEL-28 melanoma
  TGI: > 100 µM
SF-539 CNS
  TGI: > 100 µM
NCI-H460 lung
  TGI: > 100 µM
MDA-N
  TGI: > 100 µM
HCT-116 colon
  TGI: > 100 µM
U251 CNS
  TGI: > 100 µM
SNB-75 CNS
  TGI: > 100 µM
HOP-92 NSCLC
  TGI: > 100 µM
MCF7 breast
  TGI: > 100 µM
HT29 colon
  TGI: > 100 µM
SK-OV-3 ovarian
  TGI: > 100 µM
UACC-257 melanoma
  TGI: > 100 µM
SK-MEL-5 melanoma
  TGI: > 100 µM
DU-145 prostate
  TGI: > 100 µM
HL-60(TB) leukemia
  TGI: > 100 µM
A549 NSCLC
  TGI: > 100 µM
CAKI-1 renal
  TGI: > 100 µM
A498 renal
  TGI: > 100 µM
SR leukemia
  TGI: > 100 µM
786-0 renal
  TGI: > 100 µM
M14 melanoma
  TGI: > 100 µM
